“Also recorded” adds a separate entry of the source.
Legend:
Assay type in all cases: cell-based, human
[1] = system: glioma G179 tumour-initiating cells; test: Telomerase inhibition, cell population doubling analysis, G179 TIC line; conditions: Imetelstat 5 μM twice a week
Source text: Samples were obtained with patients' consent according to the Research Ethics Boards at The Hospital for Sick Children and Toronto Western Hospital. Fetal Neural Stem (NS) HF240 cells, human Mesenchymal Progenitor cells, human umbilical cord perivascular cells, and human skin-derived precursors hSKPs were previously described (Castelo-Branco et al. Clin Cancer Res. 2011 Jan. 1; 17(1):111-21). Glioma tumour-initiating cell (TIC) lines G179 and GLINS1 were derived from patients diagnosed with classic glioblastoma multiforme and maintained as previously described (Castelo-Branco et al., 2011). All cell lines and patient samples are described in Table 1.
HF240 normal neural stem cell line and the G179 TIC line were treated twice a week with 5 μM Imetelstat telomerase inhibitor. Cell population doubling analysis after treatment was then determined.

[2] = system: hypermethylated neuroblastoma cell lines; test: Telomerase inhibitor treatment of hypermethylated neuroblastoma cell lines; conditions: two neuroblastoma cell lines hypermethylated in region 2 of the TERT promoter, 5 μM for 5 weeks
[3] = system: neuroblastoma cell line (CHLA90); test: Telomerase inhibitor treatment of unmethylated neuroblastoma cell line CHLA90; conditions: CHLA90, unmethylated within region 2 of the TERT promoter, evidence of ALT; 5 μM for 5 weeks

Substance: Imetelstat
- growth / replicative potential (cell population doubling) [1]: inhibit growth; also recorded: loss of replicative potential
- response to treatment (growth and viability) [2]: responded
- response to treatment (growth and viability) ([2]; listed as imetelstat): inhibitory effect on growth and viability
- response to treatment (growth and viability) [3]: did not
